Values belong to the molecule of their own block, whether it stands above or below them.
Key:
[1] = biological target: ALK tyrosine kinase receptor (Homo sapiens, UniProt Q9UM73); assay: Inhibition of human ALK (1058 to end residues) assessed as residual activity at 0.5 uM using KKKSPGEYVNIEFG as substrate incubated for 40 mins in presence of [gamma-33ATP] by scintillation counting based radiometry assay relative to control
[2] = biological target: Serine/threonine-protein kinase A-Raf (Homo sapiens) (UniProt P10398); assay: Inhibition of recombinant human A-Raf (273 to end residues) assessed as residual activity at 0.5 uM using myelin as substrate incubated for 40 mins in presence of [gamma-33P]-ATP by scintillation counting method relative to control
[3] = system: Tyrosine-protein kinase BTK (Homo sapiens), Q06187 [R28H]; assay: Inhibition of recombinant full length human BTK R28H mutant assessed as residual activity at 0.5 uM using LSNLYHQGKFLQT as substrate incubated for 40 mins in presence of [gamma-33P]-ATP by scintillation counting method relative to control
[4] = biological target: Mast/stem cell growth factor receptor Kit (Homo sapiens) (UniProt P10721); assay: Inhibition of recombinant human c-Kit (544 to end residues) assessed as residual activity at 0.5 uM using poly(Glu, Tyr) 4:1 as substrate measured after 40 mins in presence of [gamma33P]ATP by scintillation counting method
Chain of Mast/stem cell growth factor receptor Kit (Homo sapiens) (P10721 whole entry): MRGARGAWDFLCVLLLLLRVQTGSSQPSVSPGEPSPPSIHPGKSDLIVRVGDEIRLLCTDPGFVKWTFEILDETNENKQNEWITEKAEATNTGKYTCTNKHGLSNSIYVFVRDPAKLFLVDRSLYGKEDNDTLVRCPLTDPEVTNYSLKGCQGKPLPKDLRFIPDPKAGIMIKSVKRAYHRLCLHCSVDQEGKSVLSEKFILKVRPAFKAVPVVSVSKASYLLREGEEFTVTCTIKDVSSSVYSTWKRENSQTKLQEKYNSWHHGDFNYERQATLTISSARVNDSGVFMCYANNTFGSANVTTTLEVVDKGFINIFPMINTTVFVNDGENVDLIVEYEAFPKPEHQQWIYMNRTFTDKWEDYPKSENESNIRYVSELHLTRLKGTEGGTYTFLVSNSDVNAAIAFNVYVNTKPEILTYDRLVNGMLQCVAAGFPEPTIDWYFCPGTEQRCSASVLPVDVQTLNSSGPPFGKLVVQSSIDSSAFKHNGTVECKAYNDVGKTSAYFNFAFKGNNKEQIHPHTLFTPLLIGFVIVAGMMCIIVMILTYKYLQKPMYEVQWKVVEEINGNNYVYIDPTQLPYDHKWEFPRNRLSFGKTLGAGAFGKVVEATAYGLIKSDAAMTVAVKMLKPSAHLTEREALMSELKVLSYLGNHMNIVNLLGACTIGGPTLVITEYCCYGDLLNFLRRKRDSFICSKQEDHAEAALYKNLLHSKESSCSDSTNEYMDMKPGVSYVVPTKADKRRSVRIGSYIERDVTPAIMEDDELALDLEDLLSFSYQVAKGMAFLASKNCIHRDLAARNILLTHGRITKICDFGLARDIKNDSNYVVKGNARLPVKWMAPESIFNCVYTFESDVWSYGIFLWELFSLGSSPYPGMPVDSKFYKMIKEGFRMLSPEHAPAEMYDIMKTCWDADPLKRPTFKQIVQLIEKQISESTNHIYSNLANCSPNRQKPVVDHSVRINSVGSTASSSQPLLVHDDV

[5] = system: Mast/stem cell growth factor receptor Kit (Homo sapiens), P10721 [D816H]; assay: Inhibition of recombinant human C-Kit D816H mutant (544 to end residues) assessed as residual activity at 0.5 uM poly(Glu, Tyr) 4:1 as substrate incubated 40 mins in presence of [gamma-33ATP] by scintillation counting based radiometry assay relative to control
Chain of Mast/stem cell growth factor receptor Kit (Homo sapiens), P10721 [D816H] (P10721 whole entry D816H): as the sequence (P10721 whole entry) above, with D816H counted along it

[6] = system: RAF proto-oncogene serine/threonine-protein kinase (Homo sapiens), P04049 [Y340D,Y341D]; assay: Inhibition of recombinant human C-Raf Y340D/Y341D double mutant (306 to end residues) assessed as residual activity at 0.5 uM poly(Glu, Tyr) 4:1 as substrate incubated 40 mins in presence of [gamma-33ATP] by scintillation counting based radiometry assay relative to control
[7] = system: Epidermal growth factor receptor (Homo sapiens), P00533 [L861Q]; assay: Inhibition of recombinant human EGFR L861Q mutant (696 to end residues) assessed as residual activity at 0.5 uM using poly(Glu, Tyr) 4:1 as substrate at 40 mins in presence of [gamma-33ATP] by scintillation counting based radiometry assay relative to control
[8] = biological target: Focal adhesion kinase 1 (Homo sapiens) (UniProt Q05397); assay: Inhibition of recombinant human FAK (411 to 686 residues) assessed as residual activity at 0.5 uM using EEEEYEEEEEEYYIIEEEEEEYEEEEEEYYEEEEEEKKKK as substrate at 40 mins in presence of [gamma-33ATP] by scintillation counting based radiometry assay relative to control
Chain of Focal adhesion kinase 1 (Homo sapiens) (Q05397 2-1052 limits assumed): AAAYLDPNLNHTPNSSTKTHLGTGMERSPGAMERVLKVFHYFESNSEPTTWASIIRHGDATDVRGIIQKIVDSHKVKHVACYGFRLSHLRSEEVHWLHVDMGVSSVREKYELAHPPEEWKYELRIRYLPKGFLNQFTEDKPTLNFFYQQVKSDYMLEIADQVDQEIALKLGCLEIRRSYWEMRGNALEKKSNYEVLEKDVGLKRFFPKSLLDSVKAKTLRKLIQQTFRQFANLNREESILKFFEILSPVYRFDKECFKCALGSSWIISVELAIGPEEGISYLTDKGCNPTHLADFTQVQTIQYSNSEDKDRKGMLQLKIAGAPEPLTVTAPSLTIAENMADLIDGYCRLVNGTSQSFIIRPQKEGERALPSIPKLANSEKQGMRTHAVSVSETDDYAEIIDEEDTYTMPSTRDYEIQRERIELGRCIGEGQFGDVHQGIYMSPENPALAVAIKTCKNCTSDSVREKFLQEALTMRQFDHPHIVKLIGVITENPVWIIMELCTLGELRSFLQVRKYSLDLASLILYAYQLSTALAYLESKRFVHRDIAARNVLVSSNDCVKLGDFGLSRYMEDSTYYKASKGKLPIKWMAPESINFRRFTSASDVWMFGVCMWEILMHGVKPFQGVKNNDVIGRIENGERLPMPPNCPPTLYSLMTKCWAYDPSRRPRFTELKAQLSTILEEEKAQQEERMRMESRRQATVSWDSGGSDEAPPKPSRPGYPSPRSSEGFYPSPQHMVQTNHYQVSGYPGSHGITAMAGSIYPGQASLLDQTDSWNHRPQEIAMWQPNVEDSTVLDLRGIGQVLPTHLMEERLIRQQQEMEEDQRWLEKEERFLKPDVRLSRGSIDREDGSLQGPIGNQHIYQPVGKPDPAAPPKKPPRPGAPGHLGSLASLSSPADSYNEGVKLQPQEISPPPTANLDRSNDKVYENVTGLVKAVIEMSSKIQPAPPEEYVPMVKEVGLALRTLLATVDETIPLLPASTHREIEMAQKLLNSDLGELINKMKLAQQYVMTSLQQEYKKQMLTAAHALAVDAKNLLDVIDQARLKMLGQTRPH

[9] = biological target: Fibroblast growth factor receptor 1 (Homo sapiens) (UniProt P11362); assay: Inhibition of recombinant human FGFR1 (456 to 765 residues) assessed as residual activity at 0.5 uM using KKKSPGEYVNIEF as substrate at 40 mins in presence of [gamma-33ATP] by scintillation counting based radiometry assay relative to control
[10] = biological target: Fibroblast growth factor receptor 4 (Homo sapiens) (UniProt P22455); assay: Inhibition of recombinant human FGFR4 (442 to 755 residues) assessed as residual activity at 0.5 uM using poly(Glu, Tyr) 4:1 as substrate at 40 mins in presence of [gamma-33ATP] by scintillation counting based radiometry assay relative to control
[11] = biological target: Hepatocyte growth factor receptor (Homo sapiens) (UniProt P08581); assay: Inhibition of recombinant human MET (974 to end residues) assessed as residual activity at 0.5 uM using KKKGQEEEYVFIE as substrate incubated for 40 mins in presence of [gamma-33ATP by scintillation counting based radiometry assay relative to control
[12] = biological target: Proto-oncogene tyrosine-protein kinase ROS (Homo sapiens, UniProt P08922); assay: Inhibition of recombinant human Ros1 (1883 to end residues) assessed as residual activity at 0.5 uM using KKKSPGEYVNIEFG as substrate measured after 40 mins in presence of [gamma33P]ATP by scintillation counting method relative to control
[13] = biological target: Proto-oncogene tyrosine-protein kinase Src (Homo sapiens) (UniProt P12931); assay: Inhibition of human Src (1 to 530 residues) assessed as residual activity at 0.5 uM using GGEEEEYFELVKKKK as substrate measured after 40 mins in presence of [gamma33P]ATP by scintillation counting method relative to control
Chain of Proto-oncogene tyrosine-protein kinase Src (Homo sapiens) (P12931 2-536 limits assumed): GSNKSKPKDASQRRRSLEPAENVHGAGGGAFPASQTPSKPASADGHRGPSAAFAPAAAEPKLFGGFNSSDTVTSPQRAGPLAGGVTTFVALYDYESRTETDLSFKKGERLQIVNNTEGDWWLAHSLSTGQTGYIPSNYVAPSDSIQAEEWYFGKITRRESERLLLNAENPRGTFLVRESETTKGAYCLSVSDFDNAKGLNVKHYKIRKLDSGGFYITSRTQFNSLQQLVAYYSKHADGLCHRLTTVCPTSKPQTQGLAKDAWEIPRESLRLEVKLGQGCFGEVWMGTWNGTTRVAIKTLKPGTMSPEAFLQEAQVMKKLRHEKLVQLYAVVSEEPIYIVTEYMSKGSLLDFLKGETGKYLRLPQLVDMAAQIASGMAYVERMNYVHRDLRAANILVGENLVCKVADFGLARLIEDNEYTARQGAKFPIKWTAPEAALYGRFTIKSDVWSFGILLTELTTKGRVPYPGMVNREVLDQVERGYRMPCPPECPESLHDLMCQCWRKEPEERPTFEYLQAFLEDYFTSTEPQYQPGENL

[14] = biological target: T1, High affinity nerve growth factor receptor (Homo sapiens, UniProt P04629); assay: Inhibition of human TrkA (440 to end residues) assessed as residual activity at 0.5 uM using KKKSPGEYVNIEFG as substrate measured after 40 mins in presence of [gamma33P]ATP by scintillation counting method relative to control
Target sequence in this assay (P04629 33-796 limits assumed): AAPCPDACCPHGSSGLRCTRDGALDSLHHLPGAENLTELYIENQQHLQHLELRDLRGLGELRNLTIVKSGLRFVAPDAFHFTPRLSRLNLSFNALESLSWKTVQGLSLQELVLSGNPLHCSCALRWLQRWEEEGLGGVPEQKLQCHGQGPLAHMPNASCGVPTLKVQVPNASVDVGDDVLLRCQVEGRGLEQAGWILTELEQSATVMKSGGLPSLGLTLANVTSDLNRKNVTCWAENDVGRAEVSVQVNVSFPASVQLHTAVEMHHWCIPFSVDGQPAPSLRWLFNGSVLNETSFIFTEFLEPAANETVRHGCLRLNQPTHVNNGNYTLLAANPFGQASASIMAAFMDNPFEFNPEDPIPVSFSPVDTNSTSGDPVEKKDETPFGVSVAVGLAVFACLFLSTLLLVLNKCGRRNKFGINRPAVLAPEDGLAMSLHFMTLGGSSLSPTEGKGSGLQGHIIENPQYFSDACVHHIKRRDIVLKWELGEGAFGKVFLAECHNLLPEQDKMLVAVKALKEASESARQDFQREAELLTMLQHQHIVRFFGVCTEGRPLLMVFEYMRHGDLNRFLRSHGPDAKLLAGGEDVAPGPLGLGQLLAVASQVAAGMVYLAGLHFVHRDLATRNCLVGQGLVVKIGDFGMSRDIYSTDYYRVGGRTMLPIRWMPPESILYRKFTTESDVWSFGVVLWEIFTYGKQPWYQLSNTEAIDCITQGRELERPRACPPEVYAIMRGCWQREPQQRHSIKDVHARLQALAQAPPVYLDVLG

[15] = biological target: Tyrosine-protein kinase JAK1 (Homo sapiens) (UniProt P23458); assay: Inhibition of human JAK1 (866 to end residues) assessed as residual activity at 0.5 uM using GEEPLYWSFPAKKK as substrate after 40 mins by [gamma-33ATP] radiometric assay relative to control
[16] = C0 in male Sprague-Dawley rat at 2 mg/kg, iv measured up to 24 hrs by LC/MS/MS analysis; type: ADME, organism-based; conditions: in vivo
[17] = C0 in female Sprague-Dawley rat at 2 mg/kg, iv measured up to 24 hrs by LC/MS/MS analysis; type: ADME, organism-based; conditions: in vivo
[18] = Volume of distribution in female Sprague-Dawley rat at 2 mg/kg, iv measured up to 24 hrs by LC-MS/MS analysis; type: ADME, organism-based; conditions: in vivo
[19] = Cmax in female Sprague-Dawley rat at 10 mg/kg, po measured up to 24 hrs by LC-MS/MS analysis; type: ADME, organism-based; parameters: route oral, dose 10 mg/kg, time <=24; conditions: in vivo
[20] = Tmax in male Sprague-Dawley rat at 10 mg/kg, po measured up to 24 hrs by LC-MS analysis; type: ADME, organism-based; conditions: in vivo
[21] = Oral bioavailability in male Sprague-Dawley rat at 10 mg/kg measured up to 24 hrs by LC/MS/MS analysis; type: ADME, organism-based; conditions: in vivo
[22] = biological target: T1, High affinity nerve growth factor receptor
Description: Inhibition of TrKA (unknown origin) incubated for 120 mins in presence of 33P-ATP

[23] = biological target: High affinity nerve growth factor receptor (Homo sapiens, UniProt P04629, G595R)
Chain of High affinity nerve growth factor receptor (Homo sapiens, UniProt P04629, G595R) (P04629 33-796 G595R limits assumed): as the sequence (P04629 33-796 limits assumed) above, with G563R counted along it

[24] = Cmax in Sprague-Dawley rat at 10 mg/kg, po measured up to 24 hrs by LC-MS/MS analysis; type: ADME, organism-based; parameters: route oral, dose 10 mg/kg, time <=24; conditions: in vivo
[25] = Tmax in Sprague-Dawley rat at 10 mg/kg, po measured up to 24 hrs by LC-MS analysis; type: ADME, organism-based; conditions: in vivo
[26] = AUC (0 to t) in Sprague-Dawley rat at 10 mg/kg, po measured up to 24 hrs by LC-MS/MS analysis; type: ADME, organism-based; parameters: route oral, dose 10 mg/kg, time <=24; conditions: in vivo
cells = conditions: Homo sapiens, CUTO-3
Description: Antiproliferative activity against TrK fused human CUTO-3 cells

Chain of ALK tyrosine kinase receptor (Q9UM73 19-1620 limits assumed): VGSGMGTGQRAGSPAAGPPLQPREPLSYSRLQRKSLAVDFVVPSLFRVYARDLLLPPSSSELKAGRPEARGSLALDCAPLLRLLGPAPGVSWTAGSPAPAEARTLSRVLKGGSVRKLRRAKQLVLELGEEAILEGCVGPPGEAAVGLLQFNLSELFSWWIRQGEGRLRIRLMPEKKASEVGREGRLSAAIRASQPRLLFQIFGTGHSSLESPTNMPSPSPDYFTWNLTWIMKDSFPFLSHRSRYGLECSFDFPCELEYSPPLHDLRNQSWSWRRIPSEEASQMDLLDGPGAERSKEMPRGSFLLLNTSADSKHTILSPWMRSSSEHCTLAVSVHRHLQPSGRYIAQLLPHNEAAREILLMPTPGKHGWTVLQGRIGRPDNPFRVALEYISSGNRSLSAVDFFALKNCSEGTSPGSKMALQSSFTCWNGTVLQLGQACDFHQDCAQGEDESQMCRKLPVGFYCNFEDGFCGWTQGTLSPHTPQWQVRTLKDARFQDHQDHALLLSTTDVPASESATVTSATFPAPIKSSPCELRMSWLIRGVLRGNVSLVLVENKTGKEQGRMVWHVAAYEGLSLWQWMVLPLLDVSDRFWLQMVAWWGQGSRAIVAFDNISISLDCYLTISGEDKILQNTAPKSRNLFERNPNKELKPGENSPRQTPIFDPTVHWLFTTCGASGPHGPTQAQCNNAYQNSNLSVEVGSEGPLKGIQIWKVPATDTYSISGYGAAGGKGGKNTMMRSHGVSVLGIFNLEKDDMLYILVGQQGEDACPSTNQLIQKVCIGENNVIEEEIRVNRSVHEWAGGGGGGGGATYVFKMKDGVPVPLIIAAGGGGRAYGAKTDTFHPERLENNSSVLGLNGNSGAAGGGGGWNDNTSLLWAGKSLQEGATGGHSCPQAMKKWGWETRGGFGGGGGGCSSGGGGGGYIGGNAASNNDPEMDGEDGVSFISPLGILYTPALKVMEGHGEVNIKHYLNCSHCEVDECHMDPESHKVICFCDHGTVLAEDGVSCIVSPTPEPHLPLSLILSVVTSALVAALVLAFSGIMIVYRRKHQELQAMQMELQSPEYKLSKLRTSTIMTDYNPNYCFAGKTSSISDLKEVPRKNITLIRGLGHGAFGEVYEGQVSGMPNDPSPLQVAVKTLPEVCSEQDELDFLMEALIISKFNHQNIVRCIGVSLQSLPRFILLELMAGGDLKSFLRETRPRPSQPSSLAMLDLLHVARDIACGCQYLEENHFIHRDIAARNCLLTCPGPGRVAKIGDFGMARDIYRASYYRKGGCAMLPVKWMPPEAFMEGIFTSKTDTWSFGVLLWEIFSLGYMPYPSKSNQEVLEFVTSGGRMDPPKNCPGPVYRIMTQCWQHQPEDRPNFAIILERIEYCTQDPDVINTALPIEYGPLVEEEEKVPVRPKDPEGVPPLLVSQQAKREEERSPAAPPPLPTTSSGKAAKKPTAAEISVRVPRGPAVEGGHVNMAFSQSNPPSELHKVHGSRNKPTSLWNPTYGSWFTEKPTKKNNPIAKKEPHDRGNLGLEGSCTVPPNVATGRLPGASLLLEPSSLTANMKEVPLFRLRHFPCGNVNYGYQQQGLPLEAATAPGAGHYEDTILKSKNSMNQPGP

- Activity [1]: 26%
- Activity [2]: 103%
- Activity [3]: 74%
- Activity [4]: 100%
- Activity [5]: 96%
- Activity [6]: 103%
- Activity [7]: 95%
- Activity [8]: 72%
- Activity [9]: 92%
- Activity [10]: 114%
- Activity [11]: 98%
- Activity [12]: 16%
- Activity [13]: 33%
- Activity [14]: 2%
- Activity [15]: 91%
- C0 at 24 h [16]: 4.12 µM
- C0 at 24 h [17]: 3.51 µM
- Vd [18]: 1.46 L/kg
- Cmax [19]: 6.63 µM
- Tmax [20]: 40 min
- bioavailability [21]: 56%
- IC50 [22]: 2.4 nM
- IC50 [23]: 3.5 nM
Structure (SMILES): O=C1NC2(CC2)COc2ncc(F)cc2[C@H]2COCCN2c2ccn3ncc1c3n2

Structure (SMILES): C[C@@H]1CCc2ncc(F)cc2[C@H]2CCCN2c2ccn3ncc(c3n2)C(=O)N1 [SELITRECTINIB]
- Cmax [24]: 12.7 µM
- Tmax [25]: 24 min
- AUC(0-t) at 24 h [26]: 27.3 µM·h
- IC50 (cells): ≤ 5 nM

Reference: ChEMBL document CHEMBL5034019, “Discovery of the Next-Generation Pan-TRK Kinase Inhibitors for the Treatment of Cancer” (J Med Chem, 2021)
